# Molecular target: T1, BaF3 BRAF-KIAA1549 fusion cells (Homo sapiens, UniProt P15056)
# T1 construct: The BRAF-KIAA1549 fusion mutant was subcloned into pMXs-IRES-Blasticidin (RTV-016, Cell Biolabs, San Diego, CA); fused on or other part: Q9HCM3 (UPF0606 protein KIAA1549)
# Test: BaF3 BRAF-KIAA1549 fusion cell proliferation assay (CellTiterGlo)
# Assay type: cell-based
# Settings: 96 hours incubation, potency code
# Method in brief: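 BaF3 cells stably transduced with a BRAF-KIAA1549 fusion, blasticidin-selected and growing without IL-3, were treated with compound for 96 h in RPMI/10% heat-inactivated FBS. Viability read as ATP content by CellTiterGlo luminescence, normalised to DMSO-treated cells. IC50 by Levenberg-Marquardt fit.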
# T1 sequence (P15056 whole entry, change not shown, the tested form may be a part): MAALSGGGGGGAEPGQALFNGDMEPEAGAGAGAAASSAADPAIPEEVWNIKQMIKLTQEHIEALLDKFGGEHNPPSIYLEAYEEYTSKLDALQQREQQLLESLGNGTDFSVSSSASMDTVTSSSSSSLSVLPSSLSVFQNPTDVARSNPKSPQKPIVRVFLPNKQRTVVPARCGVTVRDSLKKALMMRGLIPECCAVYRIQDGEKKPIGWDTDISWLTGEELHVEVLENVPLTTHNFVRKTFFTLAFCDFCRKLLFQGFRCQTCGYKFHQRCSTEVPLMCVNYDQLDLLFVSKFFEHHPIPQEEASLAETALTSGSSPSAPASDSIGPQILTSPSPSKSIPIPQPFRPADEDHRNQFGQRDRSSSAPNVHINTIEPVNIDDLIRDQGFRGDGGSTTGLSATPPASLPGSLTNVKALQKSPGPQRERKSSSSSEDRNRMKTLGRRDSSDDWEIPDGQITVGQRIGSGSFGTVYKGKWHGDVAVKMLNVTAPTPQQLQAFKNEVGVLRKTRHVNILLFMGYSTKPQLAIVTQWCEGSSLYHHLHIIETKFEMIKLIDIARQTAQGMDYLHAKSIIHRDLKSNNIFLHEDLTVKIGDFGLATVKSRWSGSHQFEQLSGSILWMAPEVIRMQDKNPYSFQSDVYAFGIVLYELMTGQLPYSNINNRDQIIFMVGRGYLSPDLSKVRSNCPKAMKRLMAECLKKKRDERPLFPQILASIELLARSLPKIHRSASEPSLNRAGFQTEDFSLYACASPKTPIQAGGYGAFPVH
row,Structure (SMILES),GI50 [nM]
1,"Cc1ccc(NC(=O)CN2CCCCC(F)(F)C2)cc1Nc1ncccc1-c1ncnc2[nH]cnc12 [IA-112, N-(3-(3-(9H-purin-6-yl)pyridin-2-ylamino)-4-methylphenyl)-2-(3,3-difluoroazepan-1-yl)acetamide]",100 to 500
2,"Cc1ccc(NC(=O)C[C@H]2CCN[C@H](C(F)(F)F)C2)cc1Nc1ncccc1-c1ncnc2[nH]cnc12 (single isomer, unassigned) [IA-143]",100 to 500
3,"Cc1ccc(NC(=O)C[C@@H]2CCN[C@H](C(F)(F)F)C2)cc1Nc1ncccc1-c1ncnc2[nH]cnc12 (single isomer, unassigned) [IA-142]",100 to 500
4,"Cc1ccc(NC(=O)CC2CCOC(C(F)(F)F)C2)cc1Nc1ncccc1-c1ncnc2[nH]cnc12 (stereo not drawn) [Compound I-75, N-(3-((3-(9H-purin-6-yl)pyridin-2-yl)amino)-4-methylphenyl)-2-(2-(trifluoromethyl)tetrahydro-2H-pyran-4-yl)acetamide]",20 to 100
5,"Cc1ccc(NC(=O)c2cc(C(F)(F)F)ccn2)cc1Nc1ncc(F)cc1-c1ncnc2[nH]cnc12 [IA-118, N-(3-((5-fluoro-3-(9H-purin-6-yl)pyridin-2-yl)amino)-4-methylphenyl)-4-(trifluoromethyl)picolinamide]",20 to 100
6,"Cc1ccc(C(=O)Nc2cc(C(F)(F)F)ccn2)cc1Nc1ncccc1-c1ncnc2[nH]cnc12 [Compound I-34, 3-((3-(9H-purin-6-yl)pyridin-2-yl)amino)-4-methyl-N-(4-(trifluoromethyl)pyridin-2-yl)benzamide]",20 to 100
7,"O=C(Nc1ccc(Cl)c(Nc2ncccc2-c2ncnc3[nH]cnc23)c1)c1cc(C(F)(F)F)ccn1 [Compound I-21, N-(3-(3-(9H-purin-6-yl)pyridin-2-ylamino)-4-chlorophenyl)-4-(trifluoromethyl)picolinamide]",20 to 100
8,"Cc1ccc(NC(=O)CC2CCCNCC2)cc1Nc1ncccc1-c1ncnc2[nH]cnc12 (stereo not drawn) [IA-131, N-(3-(3-(9H-purin-6-yl)pyridin-2-ylamino)-4-methylphenyl)-2-(azepan-4-yl)acetamide]",≥ 500

# Other lines, results leading:
row,GI50 [nM],Structure (SMILES)
1,< 20,"Cc1c(F)cc(NC(=O)c2ccnc(C3(C#N)CC3)c2)cc1Nc1ncccc1-c1ncnc2[nH]cnc12 [Compound I-62, N-(3-((3-(9H-purin-6-yl)pyridin-2-yl)amino)-5-fluoro-4-methylphenyl)-2-(1-cyanocyclopropyl)isonicotinamide]"
2,20 to 100,"Cc1ccc(NC(=O)CN2CCCCCC2)cc1Nc1ncccc1-c1ncnc2[nH]cnc12 [IA-110, N-(3-((3-(9H-purin-6-yl)pyridin-2-yl)amino)-4-methylphenyl)-2-(azepan-1-yl)acetamide]"
3,< 20,"Cc1ccc(NC(=O)c2cc(C(F)(F)F)c(OCCO)cn2)cc1Nc1ncccc1-c1ncnc2[nH]cnc12 [IA-104, N-(3-(3-(9H-purin-6-yl)pyridin-2-ylamino)-4-methylphenyl)-5-(2-hydroxyethoxy)-4-(trifluoromethyl)picolinamide]"
4,< 20,"Cc1ccc(NC(=O)CN2CC[C@H](C(F)(F)F)C2)cc1Nc1ncccc1-c1ncnc2[nH]cnc12 [IA-109, (S)—N-(3-((3-(9H-purin-6-yl)pyridin-2-yl)amino)-4-methylphenyl)-2-(3-(trifluoromethyl)pyrrolidin-1-yl)acetamide]"

# From patent publication US20240317752A1, “6-SUBSTITUTED-9H-PURINE DERIVATIVES AND RELATED USES” (Black Diamond Therapeutics, Inc., priority 2021, published 2024)
